Laboratory results from ChEMBL document CHEMBL4265869, “Prodrugs of triterpenoids and their derivatives” (Eur J Med Chem, 2017).
pEC50, pIC50: −log10 of the molar value.

Legend:
A549 [1] = test: Cytotoxicity in human A549 cells; assay type: functional, cell-based
[2] = Selectivity index, ratio of EC50 for mouse NIH/3T3 cells to EC50 for human A549 cells; assay type: toxicity; details: NIH/3T3 cells and A549 cells, read-out: Ratio EC50
518A2 = test: Cytotoxicity in human 518A2 cells by photometric SRB assay; assay type: functional, cell-based
FaDu = test: Cytotoxicity in human FADU cells by photometric SRB assay; assay type: functional, cell-based
HT-29 = test: Cytotoxicity in human HT-29 cells by photometric SRB assay; assay type: functional, cell-based
MCF7 = test: Cytotoxicity in human MCF7 cells by photometric SRB assay; assay type: functional, cell-based
A549 [3] = test: Cytotoxicity in human A549 cells by photometric SRB assay; assay type: functional, cell-based
SW-1736 = test: Cytotoxicity in human SW1736 cells by photometric SRB assay; assay type: functional, cell-based

`C/C=C(\C)C(=O)O[C@@H]1CC(C)(C)C[C@H]2C3=CC[C@@H]4[C@@]5(C)CC[C@H](Oc6ccccc6C(C)=O)C(C)(C)[C@@H]5CC[C@@]4(C)[C@]3(C)CCC12C(=O)O` (single isomer, unassigned) showed a pIC50 (A549 [1]) of 6.11.
`COC(=O)[C@]12CCC(C)(C)C[C@H]1C1=CC(=O)[C@@H]3[C@@]4(C)CC[C@H](OS(N)(=O)=O)C(C)(C)[C@@H]4CC[C@@]3(C)[C@]1(C)CC2` gave a selectivity ratio [2] of 2.7.
For `COC(=O)[C@]12CCC(C)(C)C[C@H]1C1=CC[C@@H]3[C@@]4(C)C[C@@H](O)[C@H](OS(N)(=O)=O)C(C)(C)[C@@H]4CC[C@@]3(C)[C@]1(C)CC2`, the pEC50 (518A2) was 5.46 to 5.66, the pEC50 (FaDu) was 5.46 to 5.66 and the pEC50 (HT-29) was 5.46 to 5.66. It also gave a pEC50 (MCF7) of 5.46 to 5.66, a pEC50 (A549 [3]) of 5.46 to 5.66 and a pEC50 (SW-1736) of 5.46 to 5.66.
`C/C=C(\C)C(=O)O[C@@H]1CC(C)(C)C[C@H]2C3=CC[C@@H]4[C@@]5(C)CC[C@H](OC(=O)Cc6ccccc6Cc6c(Cl)cccc6Cl)C(C)(C)[C@@H]5CC[C@@]4(C)[C@]3(C)CCC12C(=O)O` (single isomer, unassigned) gave a pIC50 (A549 [1]) of 6.82.
`CC(C)=CC(=O)O[C@@H]1CC(C)(C)C[C@H]2C3=CC[C@@H]4[C@@]5(C)CC[C@H](OC(=O)Cc6ccccc6Cc6c(Cl)cccc6Cl)C(C)(C)[C@@H]5CC[C@@]4(C)[C@]3(C)CCC12C(=O)O` (single isomer, unassigned) gave a pIC50 (A549 [1]) of 6.38.
